Assays:
Type in all cases: in vivo, human
[1] = Clinical pilot study: plasma lipids before and after rosuvastatin; conditions: 28 days vs baseline
Description: This Example describes a small clinical pilot study which assessed the impact of statins on lipoprotein-associated proteins in healthy individuals (n=10) with normal LDL-C (<130 mg/dL), who were treated with the statin rosuvastatin (available commercially as Crestor®) (20 mg/day) for 28 days. Proteomic analysis of size-exclusion chromatography isolated LDL, HDL-L (large) and HDL-S (small) fractions and spectral counting was used to compare relative protein detection before and after statin therapy. Significant protein changes were found in each lipoprotein pool and included both increases and decreases in several proteins involved in lipoprotein metabolism, complement regulation, and acute phase response. Fasting blood samples were obtained from ten healthy volunteers participating in a study of the NIH Center for Human Immunology, intended to evaluate effects of a statin on the immune system. This protocol was approved by the institutional review board of the National Heart, Lung, and Blood Institute (NHLBI) and registered at clinicaltrials.gov (NCT01200836); all participants provided written informed consent. Three males and seven females were enrolled, with an average age of 44.1±11 years. Participants were selected to have normal LDL-C (<130 mg/dL) and were not on any lipid modification therapy prior to the study. Recruited participants were given rosuvastatin (20 mg/day) for 28 days. Blood was collected by venipuncture at the following time points: baseline, 14 and 28 days after rosuvastatin treatment, and 14 days after stopping treatment (washout). Samples were stored at -20° C. Because samples were taken from each participant at baseline and on-treatment, each subject acted as their own control. Lipid and lipoprotein assays were performed on a Siemens Dimension Vista analyzer, using standard enzymatic assays. HDL-C was measured by a direct assay (Siemens) and LDL-C was determined by the Friedewald equation. Lipoprotein particle numbers and average particle sizes were determined from heparinized plasma on a […] Clinical Analyzer (LipoScience).

[2] = Clinical pilot study: lipoprotein particle numbers by nuclear magnetic resonance; conditions: 20 mg/day, 28 days vs baseline
Description: FIG. 1A-1C. Effect of rosuvastatin on plasma lipids and lipoprotein particle numbers. (FIG. 1A) Rosuvastatin effects on total plasma lipid levels (TC=total cholesterol; HDL-C=HDL cholesterol; LDL-C=LDL cholesterol; TG=triglyceride). The effect of rosuvastatin on LDL particle number (FIG. 1B) and HDL particle number (FIG. 1C) were measured by nuclear magnetic resonance. T0 and […] are time points indicating baseline and after 28 days of rosuvastatin treatment, respectively. Data are mean±standard deviation. * indicates p<0.01. Fasting blood samples were obtained from ten healthy volunteers participating in a study of the NIH Center for Human Immunology, intended to evaluate effects of a statin on the immune system. This protocol was approved by the institutional review board of the National Heart, Lung, and Blood Institute (NHLBI) and registered at clinicaltrials.gov (NCT01200836); all participants provided written informed consent. Three males and seven females were enrolled, with an average age of 44.1±11 years. Participants were selected to have normal LDL-C (<130 mg/dL) and were not on any lipid modification therapy prior to the study. […] HDL-C was measured by a direct assay (Siemens) and LDL-C was determined by the Friedewald equation. Lipoprotein particle numbers and average particle sizes were determined from heparinized plasma on a […] […]

[3] = system: alpha-1-antitrypsin (A1AT); assay: ELISA of A1AT in large HDL fraction and in plasma
Text: FIG. 5A-5C. Quantitative measurement of alpha-1-antitrypsin on HDL and in plasma. (FIG. 5A) Individual patient spectral counts for alpha-1-antitrypsin (A1AT) in large HDL at baseline (T0) and after 28 days (T28) of rosuvastatin treatment, n=10 for each time point. The “n=5” indicator points to data from 5 subjects with a high degree of overlap. (FIG. 5B) Quantitative measurement of A1AT in large HDL by ELISA assay. (FIG. 5C) Time course of plasma A1AT concentrations during rosuvastatin treatment and after two-week washout period (Day 42 time point). * indicates p<0.05 and ** indicates p<0.01 compared to T0.
To more quantitatively evaluate the change in A1AT levels observed in the MS data, we performed ELISA assays to measure A1AT in the large HDL fractions from all subjects.
In addition to measuring the A1AT content of large HDL, we also measured total A1AT in plasma. There was a clear trend of increasing plasma A1AT while on treatment and a return to baseline after a two week treatment washout, this effect was relatively small, approximately 10% (FIG. 5c). […] We calculated an A1AT:HDL-particle ratio (mol:mol) of about 1:100 at baseline and 1:25 after rosuvastatin treatment.

## CC(C)c1nc(N(C)S(C)(=O)=O)nc(-c2ccc(F)cc2)c1/C=C/[C@@H](O)C[C@@H](O)CC(=O)O [rosuvastatin]
[1]; 20 mg/day, not statistically significant
  increase of HDL-C: 3.6%
[1]; 20 mg/day, p<0.001
  change in LDL-C: −50%
[1]; 20 mg/day, p<0.01
  change in triglyceride: −29%
[1]; healthy subjects n=10, 20 mg/day, p<0.001
  change in total cholesterol: −28%
[2]; not statistically significant
  increase of HDL-p: 6.2%
[2]; p<0.001
  reduction of LDL particle number (LDL-p): 51%
[3]; ELISA, high responders, range
  elevation of A1AT in large HDL fraction, high responders: 5-18 fold
[3]; ELISA, low-responders, range
  increase in A1AT levels in large HDL fraction, low-responders: 6-36%
[3]; HDL-L, 28 days vs baseline, all subjects
  average increase in HDL-L associated A1AT by ELISA: 5.7 fold
[3]; estimated from A1AT content of HDL-L and plasma, baseline 0.84±0.037%
  fraction of total A1AT bound to HDL after therapy: approximately 4.54±1.73%
[3]; plasma, return to baseline after two week washout
  increase of total plasma A1AT while on treatment: approximately 10%

— patent US11872261B2, “Lipoprotein targeting protease inhibitors and uses” (The United States of America, as represented by the …, priority 2016, dated 2024)
